Measurements from US6713051B2, “Antiperspirant or deodorant compositions” (Unilever Home & Personal Care USA division of Conopco, Inc., priority 2001, dated 2004).

Target: T1, human PPARα (Homo sapiens, UniProt Q07869)
T1 construct: The coding region of a human PPARα cDNA was inserted downstream of the CMV promoter; expressed in transfected cells; host or cells: Cos-7 cells, transient transfection (pcDNA3.1(−)-PPARα, pRSV-RXRα, 3xPPRE-TK-luc reporter, pRL-TK)
T1 sequence (Q07869 1-468): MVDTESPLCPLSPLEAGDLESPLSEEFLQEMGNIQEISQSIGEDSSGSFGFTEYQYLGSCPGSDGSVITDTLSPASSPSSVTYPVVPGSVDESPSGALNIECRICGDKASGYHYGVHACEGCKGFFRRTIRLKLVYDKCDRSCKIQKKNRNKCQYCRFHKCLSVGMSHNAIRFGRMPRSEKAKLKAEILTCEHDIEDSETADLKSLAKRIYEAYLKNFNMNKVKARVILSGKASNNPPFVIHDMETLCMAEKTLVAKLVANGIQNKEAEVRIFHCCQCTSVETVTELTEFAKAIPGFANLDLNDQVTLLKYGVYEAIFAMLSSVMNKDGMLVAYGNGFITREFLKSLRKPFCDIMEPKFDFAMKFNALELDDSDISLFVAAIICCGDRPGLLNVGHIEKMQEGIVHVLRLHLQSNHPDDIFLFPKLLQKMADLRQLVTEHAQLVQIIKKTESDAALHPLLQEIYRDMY
T1 sequence (P19793 1-462 partner): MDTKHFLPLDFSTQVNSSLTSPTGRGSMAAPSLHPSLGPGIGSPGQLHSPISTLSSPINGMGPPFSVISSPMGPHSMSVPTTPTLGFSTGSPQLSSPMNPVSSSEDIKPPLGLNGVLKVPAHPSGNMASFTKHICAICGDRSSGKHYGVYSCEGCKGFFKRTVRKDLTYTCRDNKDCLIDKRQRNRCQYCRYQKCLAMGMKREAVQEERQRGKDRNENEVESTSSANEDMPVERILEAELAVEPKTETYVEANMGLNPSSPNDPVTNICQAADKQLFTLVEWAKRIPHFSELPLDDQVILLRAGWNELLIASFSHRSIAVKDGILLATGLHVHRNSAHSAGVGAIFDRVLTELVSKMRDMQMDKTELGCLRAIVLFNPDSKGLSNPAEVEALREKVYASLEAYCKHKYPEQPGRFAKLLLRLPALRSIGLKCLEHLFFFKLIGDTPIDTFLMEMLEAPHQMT
Experiment: PPARα reporter gene assay (firefly luciferase, transiently transfected Cos-7 cells)
Type: cell-based
Details: for Pass at (lowest tested administration level at which the test material passed): pass = activation greater than oleic acid at 100 μM, commonly >1.57 times vehicle control, 24 h treatment; for Result (superior activity class achieved): class reached
Description: One convenient reporter assay for determining whether a fatty acid material is PPARα activating is based upon the firefly luciferase gene.
Fatty acids were screened to identify PPAR activating fatty acids using a reporter assay.
This assay relied on ligands binding to and activating the PPARα protein, which, in turn, activated genes under the control of PPAR response elements (PPRE). In the assay, the firefly luciferase gene was cloned behind a promoter containing 3 copies of the fatty acid binding protein PPRE.
The assay was performed by transient transfection of Cos-7 cells with a mixture of four DNA plasmids. These were:
1) PPAR reporter gene construct (Modified pNF-KB-luc reporter vector (Firefly luciferase reporter vector commercially available form Clontech (NF-kB response element, TK minimal promoter, luc^+, f1 origin, pUC origin, amp^r)). A tandem repeat of 3 PPAR response elements (PPREs) corresponding to the PPRE found in the fatty acid binding protein promoter was inserted upstream of the minimal TK promoter to replace the NF-κB response element);
2) 2) Over-expressing PPARα construct (Modified pcDNA3.1(−) vector (A mammalian expression vector commercially available from Invitrogen (CMV promoter, f1 origin, SV40 origin, ColE1 origin, neo^r, amp^r)). The coding region of a human PPARα cDNA was inserted downstream of the CMV promoter of pcDNA3.1 (−)). […] The coding region of a human RXRα cDNA has been inserted downstream of the RSV promoter. (Gift of V. K. K. Chatterjee, Addenbrooke's Hospital, Cambridge)) 4) Control luciferase construct (pRL-TK Renilla luciferase reporter vector commercially available from Promega (HSV-TK promoter, T7 promoter, Rluc^+, ori, amp^r)). For the transfection, DNA was made up as a mix of PPAR reporter gene: PPARα: RXRα: control in the ratio 40:4:3:3.
Cos-7 cells were grown in Dulbecco's modified Eagle's Medium, also herein referred to as DMEM with 10% foetal calf serum, herein also referred to as FCS at 37° C., 5% CO2 to 80% confluency. Cells were then plated out in 24 well plates at 50,000 cells per well and incubated overnight in DMEM with 10% FCS at 37° C., 5% CO2. Cells were then transfected using the LipofectAMINE reagent (GibcoBRL). For each well 0.4 μg of DNA mix (in 25 μl of DMEM) was incubated with 1 μl LipofectAMINE (in 25 μl of DMEM) for 45 minutes. The mixture was then made up to 250 μl per well and added to the cells, which had been washed with 1 ml of DMEM. Cells were then incubated for 5 hours at 37° C., 5% CO2 and 250 μl DMEM with 10% SBCS (charcoal stripped bovine calf serum) added. Cells were incubated for 18 hours at 37° C., 5% CO2 before being treated with the appropriate compound/extract. Test compounds were made up as 1000× stocks (in DMSO or ethanol as appropriate) and diluted into DMEM with 10% SBCS (500 μl per well) immediately before being added to cells. Each treatment was performed in triplicate. The transfection mix was removed from the cells and replaced with the treatment mix, and incubated for 24 hours at 37° C., 5% CO2. Cells were washed with 1 ml of PBS (without calcium or magnesium) and then lysed with 100 μl per well of 1× Passive Lysis Buffer (as supplied with Promega Dual Luciferase assay kit). Lysis was allowed to continue for 15 minutes and then the lysate was assayed for Firefly and Renilla luciferase activity using the Promega Dual Luciferase assay kit. For the assay, 20 μl of lysate was taken and assayed as described in the kit instructions using a MLX microtiter™ plate luminometer (Dynex).
Firefly luciferase activity (PPAR driven) was normalised against the Renilla luciferase value for that well and the mean calculated for the three wells treated with the same agent. Activity was then expressed as fold activation over the vehicle (DMSO or ethanol) control values for that particular plate.

SMILES	Pass at (lowest tested administration level at which the test material passed) [μm]	Result at (lowest administration level at which super or MS activity was achieved) [μm]	Result (superior activity class achieved)	PPARα activation compared with the vehicle control (100 μM, base-line)
CCCCC/C=C\C/C=C\CCCCCCCC(=O)O [Linoleic acid]	10	100	super (superior activity [super] (50% higher—at least 2.25 times PPARα activation))	–
CCCCCCCCCCC/C=C/CCCCC(=O)O [Petroselaidic acid]	50	100	super (superior activity [super] (50% higher—at least 2.25 times PPARα activation))	–
CCCCCC[C@@H](O)C/C=C\CCCCCCCC(=O)O [Ricinoleic acid, ricinoleic acid]	10	–	–	–
CCCCCCCC/C=C/CCCCCCCC(=O)O [Elaidic acid]	100	–	–	–
CCCCCC[C@@H](O)C/C=C/CCCCCCCC(=O)O [Ricinolaidic acid, ricinolaidic acid]	10	25	MS (more superior activity [MS] (100% higher—at least 3 times PPARα activation))	–
CC/C=C\C/C=C\C/C=C\C/C=C\CCCCC(=O)O [Stearidonic/octadecatetraenoic acid, stearidonic acid]	25	25	super (superior activity [super] (50% higher—at least 2.25 times PPARα activation))	–
CCCCC/C=C/C/C=C/CCCCCCCC(=O)O [Linolelaidic acid]	25	–	–	–
CCCC\C=C/C=C/C=C\CCCCCCCC(=O)O [Punicic acid, punicic acid]	25	–	–	–
CCCCCCCCC#CCCCCCCCC(=O)O [Stearolic acid]	10	–	–	–
CCCCCCC(O)CCCCCCCCCCC(=O)O (stereo not shown) [12-hydroxystearic acid]	10	25	MS (more superior activity [MS] (100% higher—at least 3 times PPARα activation))	–
CCCCCC/C=C\CCCCCCCC(=O)O [Palmitoleic acid]	50	–	–	–
CCCCCCCC/C=C\CCCCCCCC(=O)O [Oleic acid, reference compound]	–	–	–	Base-line Oleic acid (1.57 at 100 μM) times
CCCCC/C=C\C/C=C\C/C=C\C/C=C\CCCC(=O)O [Arachidonic acid]	25	–	–	–
CCCCC/C=C\C/C=C\CC/C=C/CCCC(=O)O [Columbinic acid, columbinic acid]	10	25	super (superior activity [super] (50% higher—at least 2.25 times PPARα activation))	–
CC/C=C/C/C=C/C/C=C/CCCCCCCC(=O)O [Linolenelaidic acid, linolenelaidic acid]	25	25	super (superior activity [super] (50% higher—at least 2.25 times PPARα activation))	–

Further lines, with some results ahead:

Pass at (lowest tested administration level at which the test material passed) [μm]	Result at (lowest administration level at which super or MS activity was achieved) [μm]	SMILES	Result (superior activity class achieved)	PPARα activation compared with the vehicle control (100 μM, base-line)
100	–	CCCCCCCC/C=C\CCCCCCCCCC(=O)O [cis-11 eicosenoic acid]	–	–
10	100	Cc1cccc(Nc2cc(Cl)nc(SCC(=O)O)n2)c1C [WY14,643, reference compound]	super (superior activity [super] (50% higher—at least 2.25 times PPARα activation))	–
100	100	CCCCCC=CCC=CCC=CC/C=C\CCCCCC(=O)O [cis-7,10,13,16 docosatetraenoic acid]	super (superior activity [super] (50% higher—at least 2.25 times PPARα activation))	–
100	–	CCC=CCC=CC/C=C\CCCCCCCCCCCC(=O)O [cis-13,16,19 docosatrienoic acid]	–	–
10	10	CCCCCCCCCC/C=C/CCCCCC(=O)O [Trans-7-octadecenoic acid]	MS (more superior activity [MS] (100% higher—at least 3 times PPARα activation))	–
10	–	CCCCCC=CC/C=C\CCCCCCCCCCCC(=O)O [cis 13,16 docosadienoic acid]	–	–
10	100	CCCCCC=CC/C=C\CCCCCCCCCC(=O)O [cis-11,14-eicosadienoic acid]	MS (more superior activity [MS] (100% higher—at least 3 times PPARα activation))	–
10	–	CCCC/C=C/CCCCCCCCCCCC(=O)O [Trans-13-octadecenoic acid]	–	–
10	–	CCC=CCC=CCC=CCC=CCC=CC/C=C\CCC(=O)O [cis-4,7,10,13,16,19 docosahexenoic acid]	–	–
100	100	CCCCCC=CCC=CC/C=C\CCCCCCC(=O)O [cis-8,11,14 eicosatrienoic acid]	super (superior activity [super] (50% higher—at least 2.25 times PPARα activation))	–
